One block for each compound: values may come before it.
Columns and labels:
[1] = target: cAMP-dependent protein kinase (PKA) (Homo sapiens, UniProt P22694+P17612+P22612); assay: Inhibition of cAMP-dependent protein kinase (PKA); format: protein assay
[2] = target: T1, Protein kinase C epsilon type (Homo sapiens, UniProt Q02156); assay: Inhibition of protein kinase C epsilon
T1 sequence (Q02156 whole entry): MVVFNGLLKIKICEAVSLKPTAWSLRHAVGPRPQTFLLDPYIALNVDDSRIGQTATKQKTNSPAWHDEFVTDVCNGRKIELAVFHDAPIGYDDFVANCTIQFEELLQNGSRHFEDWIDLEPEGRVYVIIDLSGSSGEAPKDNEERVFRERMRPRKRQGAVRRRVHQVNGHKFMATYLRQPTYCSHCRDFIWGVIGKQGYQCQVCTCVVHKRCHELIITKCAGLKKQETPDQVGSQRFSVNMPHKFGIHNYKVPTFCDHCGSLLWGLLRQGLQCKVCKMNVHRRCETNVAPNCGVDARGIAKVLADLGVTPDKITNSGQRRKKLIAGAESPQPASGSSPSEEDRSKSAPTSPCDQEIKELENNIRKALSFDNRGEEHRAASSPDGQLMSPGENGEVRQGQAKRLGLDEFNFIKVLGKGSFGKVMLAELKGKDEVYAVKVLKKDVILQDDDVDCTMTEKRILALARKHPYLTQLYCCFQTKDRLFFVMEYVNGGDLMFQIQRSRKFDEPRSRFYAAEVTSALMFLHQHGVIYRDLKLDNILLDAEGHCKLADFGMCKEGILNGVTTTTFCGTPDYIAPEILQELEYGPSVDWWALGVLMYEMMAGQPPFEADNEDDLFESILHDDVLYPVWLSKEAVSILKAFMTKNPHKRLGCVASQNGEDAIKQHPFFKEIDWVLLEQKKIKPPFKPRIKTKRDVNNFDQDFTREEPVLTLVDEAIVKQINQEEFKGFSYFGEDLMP

[3] = target: T2, Protein kinase C eta type (Homo sapiens, UniProt P24723); assay: Inhibition of protein kinase C eta
[4] = target: T3, Protein kinase C gamma type (Homo sapiens, UniProt P05129); assay: Inhibition of protein kinase C gamma
[5] = target: T4, Protein kinase C beta type (Homo sapiens, UniProt P05771); assay: Inhibition of protein kinase C beta 1
[6] = target: T4, Protein kinase C beta type; assay: Inhibition of protein kinase C beta II
[7] = target: T5, Protein kinase C delta type (Homo sapiens, UniProt Q05655); assay: Inhibition of protein kinase C delta
[8] = target: Protein kinase C alpha type (Homo sapiens, UniProt P17252); assay: Inhibition of protein kinase C alpha
[9] = target: T4, Protein kinase C beta type; assay: Inhibition of Protein kinase C beta 2
[10] = target: T5, Protein kinase C delta type; assay: Inhibition of Protein kinase C delta
[11] = target: T3, Protein kinase C gamma type; assay: Inhibition of Protein kinase C gamma
[12] = target: T2, Protein kinase C eta type; assay: Inhibition of Protein kinase C eta
[13] = target: T4, Protein kinase C beta type; assay: Inhibition of Protein kinase C beta 1

T2 sequence (P24723 whole entry): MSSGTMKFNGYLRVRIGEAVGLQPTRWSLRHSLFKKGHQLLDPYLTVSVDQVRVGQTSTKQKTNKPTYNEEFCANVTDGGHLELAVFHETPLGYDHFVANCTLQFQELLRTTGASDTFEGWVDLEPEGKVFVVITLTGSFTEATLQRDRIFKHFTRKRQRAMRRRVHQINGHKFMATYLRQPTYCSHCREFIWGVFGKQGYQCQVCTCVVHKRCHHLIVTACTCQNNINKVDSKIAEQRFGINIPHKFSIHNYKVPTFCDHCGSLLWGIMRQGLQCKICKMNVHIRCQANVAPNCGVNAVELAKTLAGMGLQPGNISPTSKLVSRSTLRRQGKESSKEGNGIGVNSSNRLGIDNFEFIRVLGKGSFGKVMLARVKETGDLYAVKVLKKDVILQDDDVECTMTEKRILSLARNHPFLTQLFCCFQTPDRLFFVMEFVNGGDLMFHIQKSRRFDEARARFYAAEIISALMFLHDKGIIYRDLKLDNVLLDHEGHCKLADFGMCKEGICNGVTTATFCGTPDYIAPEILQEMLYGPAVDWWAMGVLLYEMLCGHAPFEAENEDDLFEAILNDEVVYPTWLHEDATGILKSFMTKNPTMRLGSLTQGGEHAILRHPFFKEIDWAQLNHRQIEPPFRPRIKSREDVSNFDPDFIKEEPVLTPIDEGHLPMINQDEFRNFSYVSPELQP
T5 sequence (Q05655 whole entry): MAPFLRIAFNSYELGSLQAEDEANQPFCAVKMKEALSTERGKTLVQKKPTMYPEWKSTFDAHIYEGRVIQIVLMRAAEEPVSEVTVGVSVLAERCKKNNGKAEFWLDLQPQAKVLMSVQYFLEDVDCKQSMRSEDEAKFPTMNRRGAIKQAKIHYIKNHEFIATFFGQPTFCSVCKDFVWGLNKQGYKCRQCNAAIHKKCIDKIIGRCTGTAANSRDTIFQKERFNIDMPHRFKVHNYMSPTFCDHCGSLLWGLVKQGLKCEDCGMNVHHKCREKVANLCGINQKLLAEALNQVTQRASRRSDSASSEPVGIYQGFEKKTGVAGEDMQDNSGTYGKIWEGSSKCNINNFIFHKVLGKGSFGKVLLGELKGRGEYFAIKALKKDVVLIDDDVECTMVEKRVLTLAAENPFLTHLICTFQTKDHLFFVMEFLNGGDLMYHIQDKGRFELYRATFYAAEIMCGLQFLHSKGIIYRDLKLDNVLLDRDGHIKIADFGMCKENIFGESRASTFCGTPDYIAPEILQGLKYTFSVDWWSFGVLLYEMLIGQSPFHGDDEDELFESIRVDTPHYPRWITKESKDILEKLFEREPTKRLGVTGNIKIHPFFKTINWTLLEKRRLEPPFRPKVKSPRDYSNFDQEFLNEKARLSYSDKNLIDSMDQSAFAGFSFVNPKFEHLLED
T4 sequence (P05771 whole entry): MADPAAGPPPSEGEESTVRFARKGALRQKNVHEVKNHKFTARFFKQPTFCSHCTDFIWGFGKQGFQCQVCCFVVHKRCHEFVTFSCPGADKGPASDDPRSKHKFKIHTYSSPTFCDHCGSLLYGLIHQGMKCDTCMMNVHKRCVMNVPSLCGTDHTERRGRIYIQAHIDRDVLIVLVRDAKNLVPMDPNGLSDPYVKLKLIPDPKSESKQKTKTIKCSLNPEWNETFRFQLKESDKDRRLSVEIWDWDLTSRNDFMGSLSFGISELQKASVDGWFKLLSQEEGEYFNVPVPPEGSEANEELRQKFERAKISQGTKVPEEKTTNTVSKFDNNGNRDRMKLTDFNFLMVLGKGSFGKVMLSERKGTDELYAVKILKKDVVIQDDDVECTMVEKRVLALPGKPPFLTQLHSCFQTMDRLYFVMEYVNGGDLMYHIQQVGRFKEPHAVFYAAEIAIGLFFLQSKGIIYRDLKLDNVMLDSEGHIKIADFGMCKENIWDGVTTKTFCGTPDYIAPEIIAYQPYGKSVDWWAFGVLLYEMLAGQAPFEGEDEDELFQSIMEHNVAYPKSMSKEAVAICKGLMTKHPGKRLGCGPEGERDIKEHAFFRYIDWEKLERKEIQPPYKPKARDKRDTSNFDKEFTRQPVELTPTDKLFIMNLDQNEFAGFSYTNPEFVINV

SMILES: O=C(N[C@@H]1c2ccccc2C[C@H]1OC(=O)c1cc(O)c(C(=O)c2c(O)cccc2C(=O)O)c(O)c1)c1ccc(O)cc1
- IC50 [2]: > 50000 nM
- IC50 [3]: 35000 nM
- IC50 [4]: 32000 nM
- IC50 [5]: > 50000 nM
- IC50 [6]: 39000 nM
- IC50 [7]: 32000 nM
- IC50 [8]: > 50000 nM

SMILES: O=C(N[C@H]1CNCCCC1OC(=O)c1cc(O)c(C(=O)c2c(O)cccc2C(=O)O)c(O)c1)c1ccc(O)cc1 (stereo not given in full)
- IC50 [9]: 880 nM
- IC50 [10]: 420 nM
- IC50 [11]: 400 nM
- IC50 [8]: 3000 nM
- IC50 [12]: 260 nM
- IC50 [13]: 500 nM

SMILES: O=C(N[C@@H]1CNCC1OC(=O)c1cc(O)c(C(=O)c2c(O)cccc2C(=O)O)c(O)c1)c1ccc(O)cc1 (stereo not given in full)
- IC50 [1]: 70 nM
- IC50 [2]: 10 nM
- IC50 [3]: 4 nM
- IC50 [4]: 12 nM
- IC50 [5]: 10 nM
- IC50 [6]: 33 nM
- IC50 [7]: 5 nM
- IC50 [8]: 22 nM

SMILES: O=C(N[C@@H]1c2ccccc2C[C@@H]1OC(=O)c1cc(O)c(C(=O)c2c(O)cccc2C(=O)O)c(O)c1)c1ccc(O)cc1
- IC50 [1]: 50000 nM
- IC50 [2]: 1900 nM
- IC50 [3]: < 50 nM
- IC50 [4]: 50 nM
- IC50 [5]: 60 nM
- IC50 [6]: 50 nM
- IC50 [7]: 50 nM
- IC50 [8]: 290 nM

SMILES: O=C(N[C@@H]1CCCC1OC(=O)c1cc(O)c(C(=O)c2c(O)cccc2C(=O)O)c(O)c1)c1ccc(O)cc1 (stereo not given in full)
- IC50 [2]: 50 nM
- IC50 [3]: 0.6 nM
- IC50 [4]: 10 nM
- IC50 [5]: 40 nM
- IC50 [6]: 50 nM
- IC50 [7]: 0.9 nM
- IC50 [8]: 40 nM

SMILES: O=C(N[C@@H]1CNCCCC1OC(=O)c1cc(O)c(C(=O)c2c(O)cccc2C(=O)O)c(O)c1)c1ccc(O)cc1 (stereo not given in full)
- IC50 [9]: 10 nM
- IC50 [10]: 4 nM
- IC50 [11]: 10 nM
- IC50 [8]: 30 nM
- IC50 [12]: 3 nM
- IC50 [13]: 10 nM

SMILES: O=C(N[C@H]1c2ccccc2CC1OC(=O)c1cc(O)c(C(=O)c2c(O)cccc2C(=O)O)c(O)c1)c1ccc(O)cc1 (mixture of isomers)
- IC50 [1]: > 100000 nM
- IC50 [2]: 25000 nM
- IC50 [4]: 34000 nM
- IC50 [5]: 37000 nM
- IC50 [6]: 37000 nM
- IC50 [7]: 21000 nM
- IC50 [8]: > 50000 nM

Further lines, results first:

- IC50 [1]: 50000 nM
- IC50 [2]: 310 nM
- IC50 [3]: < 10 nM
- IC50 [4]: 160 nM
- IC50 [5]: 200 nM
- IC50 [6]: 170 nM
- IC50 [7]: 30 nM
- IC50 [8]: 160 nM
SMILES: O=C(N[C@@H]1c2ccccc2CC1OC(=O)c1cc(O)c(C(=O)c2c(O)cccc2C(=O)O)c(O)c1)c1ccc(O)cc1 (mixture of isomers)

- IC50 [9]: 260 nM
- IC50 [10]: 50 nM
- IC50 [11]: 140 nM
- IC50 [8]: 370 nM
- IC50 [12]: < 100 nM
- IC50 [13]: 80 nM
SMILES: O=C(NC1CNCCCC1OC(=O)c1cc(O)c(C(=O)c2c(O)cccc2C(=O)O)c(O)c1)c1ccc(O)cc1 (racemic)

- IC50 [2]: 480 nM
- IC50 [3]: < 25 nM
- IC50 [4]: < 30 nM
- IC50 [5]: < 29 nM
- IC50 [6]: < 25 nM
- IC50 [7]: < 25 nM
- IC50 [8]: 70 nM
SMILES: O=C(N[C@@H]1Cc2ccccc2C1OC(=O)c1cc(O)c(C(=O)c2c(O)cccc2C(=O)O)c(O)c1)c1ccc(O)cc1 (mixture of isomers)

— ChEMBL document CHEMBL1129020, “Synthesis and protein kinase C inhibitory activities of indane analogs of balanol” (Bioorg Med Chem Lett, 1996)
